The assay has as its target T1, recombinant human GST-Syk (Homo sapiens, UniProt P43405).
T1 construct: purchased Carna Biosciences 08-176
Nature of the assay: Homogeneous Time-Resolved Fluorescence (HTRF) assay for the recombinant human Syk enzyme. In kind it is biochemical. To be noted: recombinant human GST-Syk 5 pM, ATP 25 μM, 10-dose titration 10 μM to 0.508 nM; read-out: rhSYK Activity IC50. The gist of the method:
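GST-hSyk fusion protein phosphorylated a peptide for 45 min at room temperature. The reaction was quenched with 2 nM Eu-anti-phosphotyrosine antibody and 70 nM SA-APC in 15 mM Tris pH 7.5, 40 mM EDTA, 0.01% Tween 20. The HTRF signal was read after 30 min.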
Background: TR-FRET usually uses a lanthanide donor and a delayed reading to cut background.
By IC50 is commonly meant the midpoint of a concentration-inhibition curve. For `Cc1cc(Nc2cc(C(F)(F)F)ccn2)nc(-c2cn(C3CCCCC3O)nn2)c1` (racemic) [Example 5.89, 2-[4-(4-methyl-6-{[4-(trifluoromethyl)pyridin-2-yl]amino}pyridin-2-yl)-1H-1,2,3-triazol-1-yl]cyclohexanol], the IC50 stood at 4 nM.

Regarding `Cc1cc(Nc2nccc(C(F)(F)F)n2)cc(-c2cn(C3COCC3O)nn2)c1` (single isomer, unassigned) [Example 4.5, 4-[4-(3-methyl-5-{[4-(trifluoromethyl)pyrimidin-2-yl]amino}phenyl)-1H-1,2,3-triazol-1-yl]tetrahydrofuran-3-ol], the IC50 came out at 61.2 nM.

Regarding `Cc1cc(Nc2nccc(C(F)F)n2)cc(-c2cn(CC(C)(O)C(C)(C)O)nn2)c1` (stereo not shown) [Example 21.25, 1-[4-(3-{[4-(difluoromethyl)pyrimidin-2-yl]amino}-5-methylphenyl)-1H-1,2,3-triazol-1-yl]-2,3-dimethylbutane-2,3-diol], the IC50 stood at 13.6 nM.

Consider `Cc1cc(Nc2cc(C(F)(F)F)ccn2)nc(-c2cn(C(C)C(=O)N3CCc4c([nH]c5ccccc45)C3)nn2)c1` (stereo not drawn) [Example 1.31, 4-methyl-6-{1-[1-methyl-2-oxo-2-(1,3,4,9-tetrahydro-2H-beta-carbolin-2-yl)ethyl]-1H-1,2,3-triazol-4-yl}-N-[4-(trifluoromethyl)pyridin-2-yl]pyridin-2-amine], for which the IC50 was determined as 320 nM.

Take `Cc1cc(Nc2cc(C(F)(F)F)ccn2)nc(-c2cn(C(C)C(O)CC#N)nn2)c1` (stereo not shown) [Example 4.10, 3-hydroxy-4-[4-(4-methyl-6-{[4-(trifluoromethyl)pyridin-2-yl]amino}pyridin-2-yl)-1H-1,2,3-triazol-1-yl]pentanenitrile]: the IC50 stood at 5.7 nM.

Regarding `Cc1cc(Nc2nccc(C(F)(F)F)n2)cc(-c2cn(Cc3noc(C)n3)nn2)c1` [Example 5.69, N-(3-methyl-5-{1-[(5-methyl-1,2,4-oxadiazol-3-yl)methyl]-1H-1,2,3-triazol-4-yl}phenyl)-4-(trifluoromethyl)pyrimidin-2-amine], the IC50 worked out at 57.2 nM.

On to `CCOC(=O)/C=C/Cn1cc(-c2cc(C)cc(Nc3cc(C(F)(F)F)ccn3)n2)nn1` [Example 5.34, ethyl (2E)-4-[4-(4-methyl-6-{[4-(trifluoromethyl)pyridin-2-yl]amino}pyridin-2-yl)-1H-1,2,3-triazol-1-yl]but-2-enoate], for which the concentration for half-maximal inhibition (IC50) amounted to 171 nM.

Take `Cc1cc(Nc2cc(C(F)(F)F)ccn2)nc(-c2cn(Cc3nnn[nH]3)nn2)c1` [Example 5.109, 4-methyl-6-[1-(1H-tetrazol-5-ylmethyl)-1H-1,2,3-triazol-4-yl]-N-[4-(trifluoromethyl)pyridin-2-yl]pyridin-2-amine]: the IC50 came out at 12.6 nM.

For `Cc1cc(Nc2cc(C(F)(F)F)ccn2)nc(-c2cn(CC(C)(O)CO)nn2)c1` (stereo not shown) [Example 10.16, 2-methyl-3-[4-(4-methyl-6-{[4-(trifluoromethyl)pyridin-2-yl]amino}pyridin-2-yl)-1H-1,2,3-triazol-1-yl]propane-1,2-diol], the IC50 is 6.1 nM.

For `Cc1cc(Nc2nccc(C(F)F)n2)cc(-c2cn(C3CCCC(C)(O)C3O)nn2)c1` (single isomer, unassigned) [Example 29.1, 3-(4-(3-((4-(Difluoromethyl)pyrimidin-2-yl)amino)-5-methylphenyl)-1H-1,2,3-triazol-1-yl)-1-methylcyclohexane-1,2-diol], the IC50 worked out at 19.7 nM.

With `Cc1cc(Nc2nccc(C(F)F)n2)cc(-c2cn(C(C)C(C)(O)CO)nn2)c1` (single isomer, unassigned) [Example 30.2, 3-(4-(3-((4-(Difluoromethyl)pyrimidin-2-yl)amino)-5-methylphenyl)-1H-1,2,3-triazol-1-yl)-2-methylbutane-1,2-diol], the concentration for half-maximal inhibition (IC50) came out at 6.3 nM.

As to `Cc1cc(Nc2cc(C(F)(F)F)ccn2)nc(-c2cn(C[C@]3(O)C[C@H](C#N)C3)nn2)c1` [Example 4.26, trans-3-hydroxy-3-{[4-(4-methyl-6-{[4-(trifluoromethyl)pyridin-2-yl]amino}pyridin-2-yl)-1H-1,2,3-triazol-1-yl]methyl}cyclobutanecarbonitrile], the IC50 was determined as 0.7 nM.

As for `COc1cc2c(cc1OC)CN(C(=O)C(C)n1cc(-c3cc(C)cc(Nc4cc(C(F)(F)F)ccn4)n3)nn1)C(C)C2` (stereo not shown) [Example 1.34, 6-{1-[2-(6,7-dimethoxy-3-methyl-3,4-dihydroisoquinolin-2(1H)-yl)-1-methyl-2-oxoethyl]-1H-1,2,3-triazol-4-yl}-4-methyl-N-[4-(trifluoromethyl)pyridin-2-yl]pyridin-2-amine], the IC50 was 2700 nM.

In the case of `Cc1cc(Nc2ncc(Cl)c(C)n2)cc(-c2cn(CC(C)(O)C(C)(C)O)nn2)c1` (stereo not shown) [Example 21.30, 1-(4-{3-[(5-chloro-4-methylpyrimidin-2-yl)amino]-5-methylphenyl}-1H-1,2,3-triazol-1-yl)-2,3-dimethylbutane-2,3-diol], the IC50 is 88.5 nM.

Regarding `Cc1cc(Nc2nccc(C3CC3)n2)cc(-c2cn(CC(C)(O)C(C)(C)O)nn2)c1` (stereo not shown) [Example 21.14, 1-(4-{3-[(4-cyclopropylpyrimidin-2-yl)amino]-5-methylphenyl}-1H-1,2,3-triazol-1-yl)-2,3-dimethylbutane-2,3-diol], the IC50 was determined as 7.4 nM.

As to `Cc1cc(Nc2nccc(C(F)(F)F)n2)cc(-n2cc(C3(O)CCC(C(=O)O)C(C)(C)C3)nn2)c1` (stereo not shown) [Example 15.2], the IC50 was 14.5 nM.

Turning to `Cc1cc(Nc2nccc(C(F)(F)F)n2)cc(-n2cc(CC(O)CO)nn2)c1` (stereo not shown) [Example 15.7, 3-[1-(3-methyl-5-{[4-(trifluoromethyl)pyrimidin-2-yl]amino}phenyl)-1H-1,2,3-triazol-4-yl]propane-1,2-diol], the IC50 was found to be 53.1 nM.

In the case of `COC(=O)C1CCC(n2cc(-c3cc(C)cc(Nc4cc(C(F)(F)F)ccn4)n3)nn2)c2ccccc21` (racemic) [Example 5.25, methyl 4-[4-(4-methyl-6-{[4-(trifluoromethyl)pyridin-2-yl]amino}pyridin-2-yl)-1H-1,2,3-triazol-1-yl]-1,2,3,4-tetrahydronaphthalene-1-carboxylate], the IC50 was 525 nM.

In the case of `Cc1cc(Nc2cc(C(F)(F)F)ccn2)nc(-c2cn(CC3(O)CCC(C(=O)O)C(C)(C)C3)nn2)c1` (single isomer, unassigned) [Example 3.1, (R or S) 4-hydroxy-2,2-dimethyl-4-{[4-(4-methyl-6-{[4-(trifluoromethyl)pyridin-2-yl]amino}pyridin-2-yl)-1H-1,2,3-triazol-1-yl]methyl}cyclohexanecarboxylic acid], the IC50 was determined as 60.7 nM.

Take `CCC(O)(CC)Cn1cc(-c2cc(C)cc(Nc3cc(C(F)(F)F)ccn3)n2)nn1` [Example 4.31, 3-{[4-(4-methyl-6-{[4-(trifluoromethyl)pyridin-2-yl]amino}pyridin-2-yl)-1H-1,2,3-triazol-1-yl]methyl}pentan-3-ol]: the IC50 was determined as 8.1 nM.

Regarding `CC(O)(CO)Cn1cc(-c2cccc(Nc3nccc(C(F)(F)F)n3)c2)nn1` (single isomer, unassigned) [Example 21.6, 2-methyl-3-[4-(3-{[4-(trifluoromethyl)pyrimidin-2-yl]amino}phenyl)-1H-1,2,3-triazol-1-yl]propane-1,2-diol], the IC50 was found to be 44.6 nM.

Turning to `CC/C=C/Cn1cc(-c2cc(C)cc(Nc3cc(C(F)(F)F)ccn3)n2)nn1` [Example 5.31, 4-methyl-6-{1-[(2E)-pent-2-en-1-yl]-1H-1,2,3-triazol-4-yl}-N-[4-(trifluoromethyl)pyridin-2-yl]pyridin-2-amine], the IC50 was determined as 48.6 nM.

Source of the values: patent US9586931B2 (Merck Sharp & Dohme Corp., priority 2012, dated 2017).
